Source: US11845752B2, “Substituted imidazo[1,5-a]pyrazines for the treatment of hepatitis B” (ALIGOS THERAPEUTICS, INC., priority 2020, dated 2023)
Like-named read-outs stand apart in the source and are kept apart here.

Tested on: HBV
Assay: HBV-DNA antiviral assay using HepG2.117 cells (intracellular HBV DNA by qPCR)
Type: cell-based, HBV genotype D
Conditions: HBV DNA inhibition, 3 days incubation, read-out: EC50
Outline: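 Read-outs: cell-lysate HBV DNA copies by qPCR (interpolated from gBlock standard) and parallel cellular ATP luminescence for CC50, both normalised to 2% DMSO controls and fitted by non-linear regression. HepG2.117 Tet-off genotype D HBV cells, induced by doxycycline removal, exposed 3 days to 4-fold serial dilutions.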

[1] = Hepatitis B virus, HepG2.117, 72 h

Row | Structure (SMILES) | EC50 [1] | EC50
1 | CC1Cn2c(c(C(=O)NCc3ccccc3-n3ccc(C(F)(F)F)n3)n(-c3ccc(N4CC5(CN(C)C5)C4)cc3)c2=O)CN1C(=O)c1ccc(Br)c(C(F)(F)F)c1 (single isomer, unassigned) [Compound 110a] | 50 to 500 nM | –
2 | CC1Cn2c(c(C(=O)NCc3ccccc3-n3ccc(C(F)(F)F)n3)n(-c3ccc(N4CC5(CN(C)C5)C4)cc3)c2=O)CN1C(=O)c1ccc(Br)c(C(F)(F)F)c1 (single isomer, unassigned) [Compound 110b] | – | 50 to 500 nM
3 | CC1Cn2c(c(C(=O)NCc3ccccc3-c3nnco3)n(-c3ccc(N4CC5(CN(C)C5)C4)cc3)c2=O)CN1C(=O)c1ccc(Br)c(C(F)(F)F)c1 (single isomer, unassigned) [Compound 112a] | 500 to 5000 nM | –
4 | CC1Cn2c(c(C(=O)NCc3ccccc3-c3nnco3)n(-c3ccc(N4CC5(CN(C)C5)C4)cc3)c2=O)CN1C(=O)c1ccc(Br)c(C(F)(F)F)c1 (single isomer, unassigned) [Compound 112b] | – | 500 to 5000 nM
5 | CC1(O)CCN(c2ccc(-n3c(C(=O)NCc4ccccc4)c4n(c3=O)CCN(C(=O)c3ccc(Br)c(Cl)c3)C4)cc2)C1 (single isomer, unassigned) [Compound 115a] | 50 to 500 nM | –
6 | CC1(O)CCN(c2ccc(-n3c(C(=O)NCc4ccccc4)c4n(c3=O)CCN(C(=O)c3ccc(Br)c(Cl)c3)C4)cc2)C1 (single isomer, unassigned) [Compound 115b] | – | 50 to 500 nM
7 | O=C(NCc1ccccc1)c1c2n(c(=O)n1-c1ccc(N3CC4CC[C@H]3CO4)cc1)CCN(C(=O)c1ccc(Br)c(Cl)c1)C2 (single isomer, unassigned) [Compound 125a] | 50 to 500 nM | –
8 | O=C(NCc1ccccc1)c1c2n(c(=O)n1-c1ccc(N3CC4CC[C@@H]3CO4)cc1)CCN(C(=O)c1ccc(Br)c(Cl)c1)C2 (single isomer, unassigned) [Compound 125b] | 50 to 500 nM | –
9 | O=C(NCc1ccccc1-c1ncccn1)c1c2n(c(=O)n1-c1ccc(OC3CC3)cc1)CC(CN1CCOCC1)N(C(=O)c1ccc(Br)c(C(F)(F)F)c1)C2 (single isomer, unassigned) [Compound 132a] | 500 to 5000 nM | –
10 | O=C(NCc1ccccc1-c1ncccn1)c1c2n(c(=O)n1-c1ccc(OC3CC3)cc1)CC(CN1CCOCC1)N(C(=O)c1ccc(Br)c(C(F)(F)F)c1)C2 (single isomer, unassigned) [Compound 132b] | – | 500 to 5000 nM
11 | CC1Cn2c(c(C(=O)NCc3ccccc3-n3cc(F)cn3)n(-c3ccc(N4CCO[C@H](C)C4)cc3)c2=O)CN1C(=O)c1ccc(Br)c(Cl)c1 (stereo in doubt) [Compound 14a, (6R*)-7-(4-bromo-3-chloro-benzoyl)-N-[[2-(4-fluoropyrazol-1-yl)phenyl]methyl]-6-methyl-2-[4-[(2R)-2-methylmorpholin-4-yl]phenyl]-3-oxo-6,8-dihydro-5H-imidazo[1,5-a]pyrazine-1-carboxamide] | 50 to 500 nM | –
12 | CC1Cn2c(c(C(=O)NCc3ccccc3-n3cc(F)cn3)n(-c3ccc(N4CCO[C@H](C)C4)cc3)c2=O)CN1C(=O)c1ccc(Br)c(Cl)c1 (stereo in doubt) [Compound 14b, (6S*)-7-(4-bromo-3-chloro-benzoyl)-N-[[2-(4-fluoropyrazol-1-yl)phenyl]methyl]-6-methyl-2-[4-[(2R)-2-methylmorpholin-4-yl]phenyl]-3-oxo-6,8-dihydro-5H-imidazo[1,5-a]pyrazine-1-carboxamide] | – | < 50 nM
13 | CC1Cn2c(c(C(=O)NCc3ccccc3-c3ccncn3)n(-c3ccc(N4CCO[C@H](C)C4)cc3)c2=O)CN1C(=O)c1ccc(Br)c(Cl)c1 (stereo in doubt) [Compound 15a, (6R*)-7-(4-bromo-3-chloro-benzoyl)-6-methyl-2-[4-[(2R)-2-methylmorpholin-4-yl]phenyl]-3-oxo-N-[(2-pyrimidin-4-ylphenyl)methyl]-6,8-dihydro-5H-imidazo[1,5-a]pyrazine-1-carboxamide] | 50 to 500 nM | –
14 | CC1Cn2c(c(C(=O)NCc3ccccc3-c3ccncn3)n(-c3ccc(N4CCO[C@H](C)C4)cc3)c2=O)CN1C(=O)c1ccc(Br)c(Cl)c1 (stereo in doubt) [Compound 15b, (6S*)-7-(4-bromo-3-chloro-benzoyl)-6-methyl-2-[4-[(2R)-2-methylmorpholin-4-yl]phenyl]-3-oxo-N-[(2-pyrimidin-4-ylphenyl)methyl]-6,8-dihydro-5H-imidazo[1,5-a]pyrazine-1-carboxamide] | – | < 50 nM
15 | CNc1cc(-c2ccccc2CNC(=O)c2c3n(c(=O)n2-c2ccc(OC4CC4)cc2)C[C@@H](C)N(C(=O)c2ccc(Br)c(Cl)c2)C3)ncn1 (stereo in doubt) [Compound 39a, rac-(6R)-7-(4-bromo-3-chloro-benzoyl)-2-[4-(cyclopropoxy)phenyl]-(methylamino)pyrimidin-4-6-methyl-N-[[246-yl]phenyl]methyl]-3-oxo-6,8-dihydro-5H-imidazo[1,5-a]pyrazine-1-carboxamide] | 50 to 500 nM | –
16 | CNc1cc(-c2ccccc2CNC(=O)c2c3n(c(=O)n2-c2ccc(OC4CC4)cc2)C[C@H](C)N(C(=O)c2ccc(Br)c(Cl)c2)C3)ncn1 (stereo in doubt) [Compound 39b, rac-(6S)-7-(4-bromo-3-chloro-benzoyl)-2-[4-(cyclopropoxy)phenyl]-6-methyl-N-[[246-(methylamino)pyrimidin-4-yl]phenyl]methyl]-3-oxo-6,8-dihydro-5H-imidazo[1,5-a]pyrazine-1-carboxamide] | < 50 nM | –
17 | CC1Cn2c(c(C(=O)NCc3ccccc3-c3ccncn3)n(-c3ccc(OC[C@@H](C)O)cc3)c2=O)CN1C(=O)c1ccc(Br)c(C(F)(F)F)c1 (stereo in doubt) [Compound 55a, (6R*)-7-[4-bromo-3-(trifluoromethyl)benzoyl]-2-{4-[(2R)-2-hydroxypropoxy]phenyl}-6-methyl-3-oxo-N-{[2-(pyrimidin-4-yl)phenyl]methyl}-5H,6H,8H-imidazo[1,5-a]pyrazine-1-carboxamide] | 50 to 500 nM | –
18 | CC1Cn2c(c(C(=O)NCc3ccccc3-c3ccncn3)n(-c3ccc(OC[C@@H](C)O)cc3)c2=O)CN1C(=O)c1ccc(Br)c(C(F)(F)F)c1 (stereo in doubt) [Compound 55b, (6S*)-7-[4-bromo-3-(trifluoromethyl)benzoyl]-2-{4-[(2R)-2-hydroxypropoxy]phenyl}-6-methyl-3-oxo-N-{[2-(pyrimidin-4-yl)phenyl]methyl}-5H,6H,8H-imidazo[1,5-a]pyrazine-1-carboxamide] | – | < 50 nM
19 | C[C@H]1Cn2c(c(C(=O)NCc3ccccc3-c3ccncn3)n(-c3ccc(OC[C@@H](O)C(F)(F)F)cc3)c2=O)CN1C(=O)c1ccc(Br)c(C(F)(F)F)c1 (stereo in doubt) [Compound 62b] | 50 to 500 nM | –
20 | C[C@@H]1Cn2c(c(C(=O)NCc3ccccc3-c3ccncn3)n(-c3ccc(OC[C@H](O)C(F)(F)F)cc3)c2=O)CN1C(=O)c1ccc(Br)c(C(F)(F)F)c1 (stereo in doubt) [Compound 63a, (6RS)-7-[4-bromo-3-(trifluoromethyl)benzoyl]-6-methyl-3-oxo-N-[(2-pyrimidin-4-ylphenyl)methyl]-2-[4-[(25)-3,3,3-trifluoro-2-hydroxy-propoxy]phenyl]-6,8-dihydro-5H-imidazo[1,5-a]pyrazine-1-carboxamide] | < 50 nM | –
21 | CC1Cn2c(c(C(=O)NCc3ccccc3-c3ncccn3)n(-c3ccc(OC[C@@H](O)C(F)(F)F)cc3)c2=O)CN1C(=O)c1ccc(Br)c(C(F)(F)F)c1 (stereo in doubt) [Compound 71a, (6R*)-7-[4-bromo-3-(trifluoromethyl)benzoyl]-6-methyl-3-oxo-N-{[2-(pyrimidin-2-yl)phenyl]methyl}-2-{4-[(2R)-3,3,3-trifluoro-2-hydroxypropoxy]phenyl}-5H,6H,8H-imidazo[1,5-a]pyrazine-1-carboxamide] | < 50 nM | –
22 | CC1Cn2c(c(C(=O)NCc3ccccc3-c3ncccn3)n(-c3ccc(OC[C@@H](O)C(F)(F)F)cc3)c2=O)CN1C(=O)c1ccc(Br)c(C(F)(F)F)c1 (stereo in doubt) [Compound 71b, (6S*)-7-[4-bromo-3-(trifluoromethyl)benzoyl]-6-methyl-3-oxo-N-{[2-(pyrimidin-2-yl)phenyl]methyl}-2-{4-[(2R)-3,3,3-trifluoro-2-hydroxypropoxy]phenyl}-5H,6H,8H-imidazo[1,5-a]pyrazine-1-carboxamide] | – | 50 to 500 nM
23 | C[C@@H]1Cn2c(c(C(=O)NCc3ccccc3-c3ccncn3)n(-c3ccc4c(cnn4CC(F)(F)F)c3)c2=O)CN1C(=O)c1ccc(Br)c(C(F)(F)F)c1 (stereo in doubt) [Compound 72a, rac-(6R)-7-[4-bromo-3-(trifluoromethyl)benzoyl]-6-methyl-3-oxo-N-[(2-pyrimidin-4-ylphenyl)methyl]-2-[1-(2,2,2-trifluoroethyl)indazol-5-yl]-6,8-dihydro-SH-imidazo[1,5-a]pyrazine-1-carboxamide] | < 50 nM | –
24 | C[C@H]1Cn2c(c(C(=O)NCc3ccccc3-c3ccncn3)n(-c3ccc4c(cnn4CC(F)(F)F)c3)c2=O)CN1C(=O)c1ccc(Br)c(C(F)(F)F)c1 (stereo in doubt) [Compound 72b, rac-(6S)-7-[4-bromo-3-(trifluoromethyl)benzoyl]-6-methyl-3-oxo-N-[(2-pyrimidin-4-ylphenyl)methyl]-2-[1-(2,2,2-trifluoroethyl)indazol-5-yl]-6,8-dihydro-SH-imidazo[1,5-a]pyrazine-1-carboxamide] | 50 to 500 nM | –
25 | C[C@@H]1Cn2c(c(C(=O)NCc3ccccc3-c3ccncn3)n(-c3ccc(OC[C@@](C)(O)C(F)(F)F)cc3)c2=O)CN1C(=O)c1ccc(Br)c(C(F)(F)F)c1 (stereo in doubt) [Compound 82a, rac-(6R)-7-[4-bromo-3-(trifluoromethyl)benzoyl]-6-methyl-3-oxo-N-[(2-pyrimidin-4-ylphenyl)methyl]-2-[4-[rac-(2R)-3,3,3-trifluoro-2-hydroxy-2-methyl-propoxy]phenyl]-6,8-dihydro-5H-imidazo[1,5-a]pyrazine-1-carboxamide] | 50 to 500 nM | –
